Consider 5 compounds from patent US7230166B2, “Variety of four-leaf clover and a method for breeding the same” (priority 2002, dated 2007).

What all share (format): cell-based, white clover (Trifolium repense L.)
The subject of test [1] is shoots of the white clover. As to the kind of experiment: Effects of BAP, IAA and NAA on the shoot propagation of the clover. The protocol: Furthermore, in order to promote mutation and cell division of shoots of the white clover, the shoots were treated with cold water of 5° C. for 20 seconds, which in turn were transferred to a solution of Ethyl Methane Sulfonate of 0.2 μg/L for 3 seconds. Then, the shoots were washed with sterile water. […] The incubation of the shoots was carried out under the conditions of temperature of 21° C. and luminous intensity of 500 lux.

The test system of test [2] is cut segments of the white clover. As to the kind of experiment: Effects of Ethyl Methane Sulfonate on the mutation of the shoots. Conditions: for Color of leaves / Heliophilous / Mutation ratio (%) / Numbers of leaves / Numbers of stems / Shape of leaves: 3.0 sec. From the text: Two hundreds of wild-type white clovers, which were native in Korea, were harvested, wherein the respective clovers had three leaves and a stem of a length of about 7 cm.
All leaves were removed from the clovers. Then, the stems of the clovers were cut at a length of about 3˜4 cm, which are transferred to a conical flask and subjected to a solution of ethyl alcohol of 70% for 30 seconds to sterilize the stems. Next, the segments of stems were washed with sterile water, which in turn were transferred to a solution of ethyl alcohol of 70% for 15 minutes to sterilize surfaces of the stem segments. Continuously, the stem segments were washed with sterile water three times.
The sterilized segments of the white clovers were cut again at a length of 2˜3 mm in a clean bench, wherein each of the cut segments included growing point. The resulting cut segments of the white clover were treated with Ethyl Methane Sulfonate in order to induce mutation.
Referring to the Table 1, shoots were respectively treated with Ethyl Methane Sulfonate of 0.1˜0.3 μg/L for 3 seconds. As the result, when the shoots were treated with Ethyl Methane Sulfonate of 0.2 μg/L, the ratio, regarding the growth of four leaves from the stem, is highest.

The subject of test [3] is cultivated shoots of the clover. As to the kind of experiment: Effects of IAA/IBA and NAA on shoot growth and rooting of the cultivated shoots.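 As to Length of roots (cm): Auxin doses in mg/L.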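 As to Length of shoots (cm): Auxin doses in mg/L.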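 As to Numbers of roots/segments: Auxin doses in mg/L.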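 As to Numbers of shoots/segments: Auxin doses in mg/L.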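 As to Weight of shoots/segments (g): Auxin doses in mg/L.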 To be noted: for Length of roots (cm) / Length of shoots (cm) / Numbers of roots/segments / Numbers of shoots/segments / Weight of shoots/segments: basic MS medium + SUCROSE 20 g/L. On the procedure: The cultivation was carried out under the conditions of acidity of pH 5.5, 22˜25° C. and luminous intensity of 800 lux.

The subject of another test is shoots of the clover. As to the kind of experiment: Effects of the density of sucrose in the medium on the propagation and growth of shoots. On the procedure: Meanwhile, sucrose of […] was added to the medium in order to reduce the callus formation and the transparency ratio during the cultivation of the shoots.
[4] abbreviates: medium with BAP of 1.0˜2.0 mg/L.
Where [5] appears, read: Sucrose 10 mg/L, basic MS medium + BAP 2.0 mg/L + IAA 0.5 mg/L.
Where [6] appears, read: Sucrose 15 mg/L, basic MS medium + BAP 2.0 mg/L + IAA 0.5 mg/L.
Setting [7] is: Sucrose 20 mg/L, basic MS medium + BAP 2.0 mg/L + IAA 0.5 mg/L.
Setting [8] is: Sucrose 25 mg/L, basic MS medium + BAP 2.0 mg/L + IAA 0.5 mg/L.
Where [9] appears, read: Sucrose 30 g/L, basic MS medium + BAP 2.0 mg/L + IAA 0.5 mg/L.

For `c1ccc(CNc2ncnc3nc[nH]c23)cc1` [BAP, 6-Benzylaminopurine], the “incubation efficiency of the shoots” value in test [1] (in proportion to the density of the BAP) is reported as “enhanced”. In test [1] (setting [4]), the “average number of the shoots” value was “more than 2.7” and the transparency ratio result was “more than 42.3%”.

As to `CCOS(C)(=O)=O` [EMS, Ethyl Methane Sulfonate], in test [2] (EMS 0.1 μg/L), the Color of leaves entry was “Light”, the Heliophilous stood at 0.3c, the “Mutation ratio (%)” value amounted to 12c % and the Numbers of leaves is on record as 4c. Besides, in test [2] (EMS 0.1 μg/L), the Numbers of stems worked out at 6c and the Shape of leaves entry was “Heart”. In test [2] (EMS 0.2 μg/L), the Color of leaves entry is “Light”, the Heliophilous was determined as 1.5a, the “Mutation ratio (%)” value stood at 25a % and the Numbers of leaves is given as 4a. Also, in test [2] (EMS 0.2 μg/L), the Numbers of stems worked out at 10b and the Shape of leaves entry was “Heart”. For the same compound, in test [2] (EMS 0.3 μg/L), the Color of leaves result is recorded as “Light”, the Heliophilous is reported as 2.5b, the “Mutation ratio (%)” value came to 18b % and the Numbers of leaves came out at 4b. Also, in test [2] (EMS 0.3 μg/L), the Numbers of stems is 8b and the Shape of leaves result was “Heart”. Besides, in test [2] (Ethyl Methane Sulfonate of 0.2 μg/L for 3 seconds, among 0.1˜0.3 μg/L), the “ratio regarding the growth of four leaves from the stem” value is on record as “highest”.

Consider `O=C(O)CCCc1c[nH]c2ccccc12` [IBA], for which, in test [3] (IBA 0.5), the “Length of roots (cm)” value is reported as 4.9 a cm, the “Length of shoots (cm)” value is on record as 5.1 a cm, the Numbers of roots/segments is 2.2 ab and the Numbers of shoots/segments amounted to 1.4 a. The “Weight of shoots/segments” value in test [3] (IBA 0.5) amounted to 3.4 g. Besides, in test [3] (IBA 1.5), the “Length of roots (cm)” value worked out at 4.6 a cm, the “Length of shoots (cm)” value stood at 5.3 a cm, the Numbers of roots/segments came to 2.8 ab and the Numbers of shoots/segments is listed as 1.2 a. The “Weight of shoots/segments” value in test [3] (IBA 1.5) is reported as 4.66 g. Further, in test [3] (IBA 2.0), the “Length of roots (cm)” value is 5.1 a cm, the “Length of shoots (cm)” value is given as 5.1 a cm, the Numbers of roots/segments turned out to be 3.4 a and the Numbers of shoots/segments stood at 1.0 a. Besides, the “Weight of shoots/segments” value in test [3] (IBA 2.0) was 4.21 g. Besides, in test [3] (IBA 5.0), the “Length of roots (cm)” value came to 3.1 b cm, the “Length of shoots (cm)” value worked out at 4.7 a cm, the Numbers of roots/segments is listed as 1.2 b and the Numbers of shoots/segments was found to be 1. The “Weight of shoots/segments” value in test [3] (IBA 5.0) amounted to 3.33 g. Further, the “rooting of the shoots” value in test [3] (IBA of 0.5 mg/L added to the basic MS medium) is “induced well”.

Consider `O=C(O)Cc1cccc2ccccc12` [NAA, α-Naphthaleneacetic Acid], for which, in test [3] (NAA 0.5), the “Length of roots (cm)” value was determined as 4.8 a cm, the “Length of shoots (cm)” value is given as 4.6 a cm, the Numbers of roots/segments amounted to 3.2 a and the Numbers of shoots/segments came out at 1.0 a. Further, in test [3] (NAA 0.5), the “Weight of shoots/segments” value was 3.92 g. Besides, in test [3] (NAA 1.0), the “Length of roots (cm)” value was found to be 3.6 ab cm, the “Length of shoots (cm)” value came to 4.8 a cm, the Numbers of roots/segments is recorded as 2.5 ab and the Numbers of shoots/segments worked out at 1.1 a. For the same compound, the “Weight of shoots/segments” value in test [3] (NAA 1.0) is recorded as 4.21 g. Moreover, in test [3] (NAA 2.0), the “Length of roots (cm)” value stood at 3.4 b cm, the “Length of shoots (cm)” value is 4.8 a cm, the Numbers of roots/segments was 1.9 b and the “Weight of shoots/segments” value is 3.42 g. For the same compound, in test [3] (NAA 5.0), the “Length of roots (cm)” value is recorded as 3.2 b cm, the “Length of shoots (cm)” value stood at 4.2 a cm, the Numbers of roots/segments is given as 1.6 b and the Numbers of shoots/segments was 1.0 a. In addition, the “Weight of shoots/segments” value in test [3] (NAA 5.0) was 3.72 g. Further, in test [3] (NAA of 0.5˜1.0 mg/L added to the basic MS medium), the “rooting of the shoots” value is reported as “induced well”.

As for `OC[C@H]1O[C@@](CO)(O[C@H]2O[C@H](CO)[C@@H](O)[C@H](O)[C@H]2O)[C@@H](O)[C@@H]1O` [Sucrose, sucrose], the “Length of shoots (cm)” value was 3.2 a cm with shoots of the clover (setting [5]); 4.1 a cm in the test with shoots of the clover (setting [6]); 4.8 a cm in the test on shoots of the clover (setting [7]); 3.9 a cm in the test on shoots of the clover (setting [8]); 4.4 a cm in the test with shoots of the clover (setting [9]). Moreover, the Numbers of shoots/segments with shoots of the clover (setting [5]) came to 3.2 a^a; in the test with shoots of the clover (setting [6]), 3.9 a; in the test on shoots of the clover (setting [7]), 4.0 a; with shoots of the clover (setting [8]), 3.6 a; in the test with shoots of the clover (setting [9]), 3.4 a. Further, the “Weight of shoots/segments (g)” value amounted to 1.66 a g in the test with shoots of the clover (setting [5]); 2.13 ab g in the test on shoots of the clover (setting [6]); 2.17 ab g in the test with shoots of the clover (setting [7]); 2.43 ab g with shoots of the clover (setting [8]); 2.73 a g with shoots of the clover (setting [9]). In addition, the “transparency ratio (%)” value stood at 3.46 b % in the test with shoots of the clover (setting [5]); 40.1 a % in the test on shoots of the clover (setting [6]); 46.7 a % in the test on shoots of the clover (setting [7]); 42.4 a % in the test with shoots of the clover (setting [8]); 50.7 a % in the test with shoots of the clover (setting [9]). The Callus formation result in the test with shoots of the clover (setting [8]) was “++”; in the test on shoots of the clover (setting [9]), “+++”; in the test on shoots of the clover (sucrose of 15˜20 g/L in the medium), “callus was generated only”.
